Patent EP0348513A1, “STYRENE DERIVATIVE, POLYSTYRENE DERIVATIVE COMPRISING THE SAME, PROCESS FOR PREPARING SAID POLYSTYRENE DERIVATIVE, AND ULTRAVIOLET ABSORBER COMPRISING SAID STYRENE DERIVATIVE OR POLYSTYRENE DERIVATIVE” (Earth Chemical Co., Ltd., priority 1987, dated 1989)
Values joined by “and” are separate entries in the source; they are usually repeats but may differ in a detail not shown here. Equal values may be shown once.

Key:
[1] = Ultraviolet absorption spectrum (spectrophotometer, quartz cell, optical path 10 mm); type: physicochemical
Procedure: The measurement was carried out by using a spectrophotometer (UV-200S, made by SHIMADZU CORPORATION) as an ethanol solution of the sample having a suitable concentration with a quartz cell having an optical path of 10 mm. Also, the wavelength at the maximum absorption and the molar extinction coefficient were found from the results of the measurement as the ultraviolet absorptive properties. The results are shown below. • Wavelength at the maximum absorption: 332 nm Molar extinction coefficient: 44,000
The measurement was carried out by using a spectrophotometer (UV-200S, made by SHIMADZU CORPORATION), as a dimethylformamide solution of the sample having a suitable concentration and with a quartz cell having an optical path of 10 mm.
The measurement was carried out by using a spectrophotometer (UV-200S, made by SHIMADZU CORPORATION), as a dimethylformamide solution of the sample having a suitable concentration, with a quartz cell having an optical path of 10 mm.

guinea pigs = experiment: Sunscreen effect against ultraviolet irradiation of the skin; type: in vivo; conditions: sunscreen ointment or lotion containing the derivative, about 2 mg per 1 cm^2, ultraviolet rays 10 minutes, judged after 24 hours with the naked eyes; control area turned red
Procedure: (§1) Hair of. the notal of three guinea pigs was cut, and the drug (ointment) was applied in an amount of about 2 mg per 1 cm^2. Then, ultraviolet rays were irradiated for 10 minutes by a fluorescent light (FL-20SE, made by TOSHIBA CORPORATION) from a height of 10 cm from the notal.. On the other hand, as a control area, a base prepared without mixing the sunscreening agent was applied, and treatments were carried out in the same manner as.above. The judgement was conducted after 24 hours with the naked eyes.
as §1, with “of” for “of.”, “cm^2..” for “cm^2.”, “notal.” for “notal..”, “as above.” for “as.above.”

[2] = Transmittance of ultraviolet rays through a coated polyethylene sheet; type: physicochemical; conditions: wavelength of 330 nm
Procedure: There was dissolved 2.8 g of p-vinylbenzaldehyde 4-carboxymethyl-2-methylthiosemicarbazone in 1.5 g of triethanolamine and 23.7 g of water. The solution was applied onto a polyethylene sheet having a thickness of 0.5 mm (which was prepared in the same manner as the preparation process for the'control pieces in Example 11) in an amount of 2.0 mg/cm^2, and dried at room temperature to give a ultraviolet absorbent sheet.
The obtained ultraviolet absorbent sheet and untreated polyethylene sheet were cut into pieces having a size of 1 cm X 4 cm, respectively. The untreated polyethylene sheet was used as control piece, and transmittance of ultraviolet rays at a wavelength of 330 nm was measured by using a spectrophotometer. As the result, the transmittance of ultraviolet rays of the ultraviolet absorbent sheet was not more than 0.1 %. Accordingly, it was confirmed that not less than 99.9 % of ultraviolet rays were absorbed under the above condition.

skin of a quinea pig = experiment: Percutaneous absorption, Franz diffusion cell; type: in vitro ADME; conditions: 1 % aqueous solution, 33°C, 20 hours
Procedure: The skin of a quinea pig was peeled, washed with physiological saline and then set in a percutaneous absorption apparatus which was made in accordance with the description in Franz, T. J, J. Invest, Dermatol, 64, 190, 1975, by using a diffusion cell. The sample room was filled with 0.5 mi of a 1 % aqueous solution of the polystyrene derivative, and the acceptor was filled with physiological saline. After maintaining at 33°C for 20 hours while stirring with a magnetic stirrer, the physiological saline in the acceptor was taken out, and the ultraviolet absorbency was measured. In the same manner as above, ultraviolet absorbency was measured, using water alone as a negative control substance and a 1 % aqueous solution of p-aminobenzoic acid as a positive control substance. […] To the contrary, the spectrum of the positive control substance was shown the corresponding to an amount of 87.0 ppm of the compound.
The skin of a quinea pig was peeled, washed with physiological saline and then set in a percutaneous absorption apparatus which was made in accordance with the description in Franz, T. J, J. Invest, Dermatol, 64, 190, 1975, by using a diffusion cell. […] After maintaining at 33°C for 20 hours while stirring with a magnetic stirrer, the physiological saline in the acceptor was taken out, and the ultraviolet absorbency was measured. […]

[3] = ethanol solution, at the maximum absorption
[4] = N,N-dimethylformamide solution, at the maximum absorption
[5] = commercially available sunscreening agent, at the first (shorter) maximum
[6] = commercially available sunscreening agent, at the second (longer) maximum
[7] = commercially available sunscreening agent, first (shorter) maximum
[8] = commercially available sunscreening agent, second (longer) maximum
[9] = commercially available sunscreening agent, solvent not stated

| SMILES | Wavelength at the maximum absorption ([1]; ethanol solution) [nm] | Molar extinction coefficient [1, 3] | other results |
| --- | --- | --- | --- |
| C=Cc1ccc(C=NN(CCO)C(=S)NC)cc1 [Example 9, p-vinylbenzaldehyde 2-(β-hydroxyethyl)-4-methylthiosemicarbazone] | 322 | 40,000 | – |
| C=Cc1ccc(C=NN(C)C(=S)NC)cc1 [Example 7, vinylbenzaldehyde 2,4-dimethylthiosemicarbazone] | 315 | 34,000 | – |
| C=Cc1ccc(C=NN(CC(=O)OCC)C(=S)N(C)C)cc1 [Example 6, p-vinylbenzaldehyde 2-ethoxycarbonylmethyl-4,4-dimethylthiosemicarbazone] | 381 | 34,000 | – |
| C=Cc1ccc(C=NN(C)C(=S)N(C)C)cc1 [Example 8, p-vinylbenzaldehyde 2,4,4-trimethylthiosemicarbazone] | 331 | 29,000 | – |
| C=Cc1ccc(C=NN(C)C(=O)NCC(=O)OCC)cc1 [Example 3, p-vinylbenzaldehyde 4-ethoxy carbonylmethyl-2-methylsemicarbazone] | 311 | 33,000 | sunscreen effect (color of the applied area compared with an area not irradiated) (guinea pigs): the color in the area on which the sunscreen lotion was applied was not changed |
| C=Cc1ccc(C=NN(CCCC(=O)O)C(=S)NC)cc1 [Example 5, p-vinylbenzaldehyde 2-(y-carboxypropyl)-4-methylthiosemicarbazone] | 332 | 38,000 | – |
| C=Cc1ccc(C=NN(CC(=O)O)C(=S)NC)cc1 [Example 4, vinylbenzaldehyde 2-carboxymethyl-4-methylthiosemicarbazone] | 315 | 34,000 | – |
| C=Cc1ccc(C=NN(C)C(=S)Nc2ccccc2)cc1 [Example 12, p-vinylbenzaldehyde 2-methyl-4-phenylthiosemicarbazone] | – | – | Wavelength at the maximum absorption ([1]; N,N-dimethylformamide solution): 338 nm; Molar extinction coefficient [1, 4]: 40,000 |
| Cc1ccc(O)c(-n2nc3ccccc3n2)c1 [2-(2'-hydroxy-5'-methylphenylbenzotriazole), reference compound] | – | – | molar extinction coefficients [1, 5]: 12,000; molar extinction coefficients [1, 6]: 13,000; wavelengths at the maximum absorption [1, 7]: 297 nm; wavelengths at the maximum absorption [1, 8]: 337 nm |
| C=Cc1ccc(C=NN(C)C(=S)NCC(=O)OC)cc1 [Example 1, p-vinylbenzaldehyde 4-methoxycarbonylmethyl-2-methylthiosemicarbazone] | 332 | 44,000 | – |
| COc1ccc(C(=O)c2ccccc2)c(O)c1 [2-hydroxy-4-methoxybenzophenone, reference compound] | – | – | molar extinction coefficients [1, 5]: 13,000; molar extinction coefficients [1, 6]: 8,200; wavelengths at the maximum absorption [1, 7]: 287 nm; wavelengths at the maximum absorption [1, 8]: 326 nm |
| C=Cc1ccc(C=NN(C)C(=S)NCC(=O)O)cc1 [Example 2, p-vinylbenzaldehyde 4-carboxymethyl-2-methylthiosemicarbazone] | 332 | 44,000 | ultraviolet rays absorbed ([2]; same coated sheet): not less than 99.9%; transmittance of ultraviolet rays ([2]; triethanolamine/water solution applied at 2.0 mg/cm^2 on 0.5 mm polyethylene sheet): not more than 0.1% |
| C=Cc1ccc(C=NN(C(=S)NC)c2ccccc2)cc1 [Example 11, p-vinylbenzaldehyde 4-methyl-2-phenylthiosemicarbazone] | – | – | Wavelength at the maximum absorption ([1]; N,N-dimethylformamide solution): 335 nm; Molar extinction coefficient [1, 4]: 38,000 |
| CC1CC(OC(=O)c2ccccc2O)CC(C)(C)C1 (stereo not drawn) [homomenthyl salicylate, reference compound] | – | – | Molar extinction coefficient [1, 9]: 4,400; Wavelength at the maximum absorption [1, 9]: 308 nm |
| Nc1ccc(C(=O)O)cc1 [p-aminobenzoic acid] | – | – | amount of the compound in the acceptor corresponding to the spectrum (skin of a quinea pig): 87.0 ppm and 93.0 ppm |
